How the values were obtained:
[1] = system: BaF3; assay: Antiproliferative activity against mouse BAF3 cells expressing PDGFRalpha T674M mutant gene; assay type: functional, cell-based
[2] = system: BaF3; assay: Antiproliferative activity against mouse BAF3 cells expressing Kit […] mutant gene; assay type: functional, cell-based
[3] = system: BaF3; assay: Antiproliferative activity against wild type mouse BAF3 cells; assay type: cell-based
[4] = system: MOLT-3; assay: Antiproliferative activity against human MOLT3 cells expressing FLT3 gene; assay type: functional, cell-based

- EC50 [1]: > 10 µM
- EC50 [2]: > 10 µM
- EC50 [3]: > 10 µM
- EC50 [4]: > 10 µM
SMILES: O=C(NCCN1CCOCC1)c1cccc(-c2ccc3c(NC(=O)C4CC4)n[nH]c3c2)c1
